Assay results published in patent US9873696B2, “Neprilysin inhibitors” (THERAVANCE BIOPHARMA R&D IP, LLC, priority 2010, dated 2018).

biological target: T1, human NEP (Homo sapiens, UniProt P08473); test: In vitro enzyme inhibition assay at human NEP (Assay 1); format: biochemical; conditions: recombinant enzyme, fluorogenic peptide substrate, 37° C.
T1 construct: purchased R&D Systems, Minneapolis, Minn; 1182-ZN
Protocol: In Vitro Assays for the Quantitation of Inhibitor Potencies (IC50) at Human and Rat NEP, and Human ACE
The inhibitory activities of compounds at human and rat neprilysin (EC 3.4.24.11; NEP) and human angiotensin converting enzyme (ACE) were determined using in vitro assays as described below.
Recombinant human NEP and recombinant human ACE were obtained commercially (R&D Systems, Minneapolis, Minn., catalog numbers 1182-ZN and 929-ZN, respectively). The fluorogenic peptide substrate Mca-D-Arg-Arg-Leu-Dap-(Dnp)-OH (Medeiros et al. (1997) Braz. J. Med. Biol. Res. 30:1157-62; Anaspec, San Jose, Calif.) and Abz-Phe-Arg-Lys(Dnp)-Pro-OH (Araujo et al. (2000) Biochemistry 39:8519-8525; Bachem, Torrance, Calif.) were used in the NEP and ACE assays respectively.
The assays were performed in 384-well white opaque plates at 37° C. using the fluorogenic peptide substrates at a concentration of 10 μM in Assay Buffer (NEP: 50 mM HEPES, pH 7.5, 100 mM NaCl, 0.01% polyethylene glycol sorbitan monolaurate (Tween-20), 10 μM ZnSO4; ACE: 50 mM HEPES, pH 7.5, 100 mM NaCl, 0.01% Tween-20, 1 μM ZnSO4).
Test compounds were assayed over the range of concentrations from […] to 20 μM. Test compounds were added to the enzymes and incubated for 30 minute at 37° C. prior to initiating the reaction by the addition of substrate. Reactions were terminated after 20 minutes of incubation at 37° C. by the addition of glacial acetic acid to a final concentration of 3.6% (v/v).
Plates were read on a fluorometer with excitation and emission wavelengths set to 320 nm and 405 nm, respectively. Inhibition constants were obtained by nonlinear regression of the data using the equation (GraphPad Software, Inc., San Diego, Calif.): v=v0/[1+(I/K′)] where v is the reaction rate, v0 is the uninhibited reaction rate, I is the inhibitor concentration and K′ is the apparent inhibition constant.
Compounds of the invention were tested in this assay and found to have pKi values at human NEP as follows.

T1 sequence (P08473 whole entry): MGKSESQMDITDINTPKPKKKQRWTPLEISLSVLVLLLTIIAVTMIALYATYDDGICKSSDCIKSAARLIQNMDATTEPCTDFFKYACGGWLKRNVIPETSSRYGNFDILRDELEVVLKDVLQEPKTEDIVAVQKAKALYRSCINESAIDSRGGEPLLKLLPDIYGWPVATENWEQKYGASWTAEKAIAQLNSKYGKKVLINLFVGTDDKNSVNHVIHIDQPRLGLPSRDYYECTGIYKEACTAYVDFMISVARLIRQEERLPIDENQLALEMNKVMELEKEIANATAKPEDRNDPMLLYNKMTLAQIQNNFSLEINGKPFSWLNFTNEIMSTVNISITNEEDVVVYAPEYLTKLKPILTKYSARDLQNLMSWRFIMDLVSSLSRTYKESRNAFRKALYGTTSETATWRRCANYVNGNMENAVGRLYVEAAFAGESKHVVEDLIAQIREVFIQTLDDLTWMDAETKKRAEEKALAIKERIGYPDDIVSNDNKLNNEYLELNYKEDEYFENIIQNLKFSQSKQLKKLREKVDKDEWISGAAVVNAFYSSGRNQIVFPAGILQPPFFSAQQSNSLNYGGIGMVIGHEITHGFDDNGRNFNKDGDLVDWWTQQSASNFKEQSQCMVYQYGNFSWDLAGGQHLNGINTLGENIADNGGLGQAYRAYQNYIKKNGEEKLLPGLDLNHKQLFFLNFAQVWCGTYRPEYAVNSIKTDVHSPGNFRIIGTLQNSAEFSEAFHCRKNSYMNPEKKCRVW

Row | SMILES | Ki [nM]
1 | O=C(NN(Cc1ccc(-c2cccc(Cl)c2)cc1)C[C@H](O)C(=O)O)c1cc(O)no1 [Example 3K, (S)-3-[N-(3′-Chloro-biphenyl-4-ylmethyl)-N′-(3-hydroxyisoxazole-5-carbonyl)-hydrazino]-2-hydrox-propionic Acid] | ≤ 1
2 | O=C(NN(Cc1ccc(-c2cccc(Cl)c2)cc1)C[C@@H](O)C(=O)O)c1nc(Cl)n[nH]1 [Example 4-1, (R)-3-[N-(3′-Chlorobiphenyl-4-ylmethyl)-N′-(5-chloro-2H-[1,2,4]triazole-3-carbonyl)-hydrazino]-2-hydroxy-propionic acid] | 1.26 to 10
3 | O=C(NN(Cc1ccc(-c2cccc(Cl)c2)cc1)C[C@@H](O)C(=O)O)c1nc(O)n[nH]1 [Example 4-2, (R)-3-[N-(3′-Chlorobiphenyl-4-ylmethyl)-N′-(5-hydroxy-2H-[1,2,4]triazole-3-carbonyl)-hydrazino]-2-hydroxy-propionic acid] | 1.26 to 10
4 | O=C(NN(Cc1ccc(-c2cccc(Cl)c2)cc1)C[C@@H](O)C(=O)O)c1cnn[nH]1 [Example 4-3, (R)-3-[N-(3′-Chlorobiphenyl-4-ylmethyl)-N′-(3H-[1,2,3]triazole-4-carbonyl)-hydrazino]-2-hydroxy-propionic acid] | 1.26 to 10
5 | O=C(NN(Cc1ccc(-c2cccc(Cl)c2)cc1)C[C@@H](O)C(=O)O)c1cn(O)nn1 [Example 4-4, (R)-3-[N-(3′-Chlorobiphenyl-4-ylmethyl)-N′-(1-hydroxy-1H-[1,2,3]triazole-4-carbonyl)-hydrazino]-2-hydroxy-propionic acid] | ≤ 1
6 | O=C(NN(Cc1ccc(-c2cccc(Cl)c2)cc1)C[C@@H](O)C(=O)O)c1nnn[nH]1 [Example 4-5, (R)-3-[N-(3′-Chlorobiphenyl-4-ylmethyl)-N′-(1H-tetrazole-5-carbonyl)-hydrazino]-2-hydroxy-propionic acid] | ≤ 1
7 | O=C(NN(Cc1ccc(-c2cccc(Cl)c2)cc1)C[C@@H](O)C(=O)O)c1cc(-c2cccnc2)[nH]n1 [Example 4-9, (R)-3-[N-(3′-Chlorobiphenyl-4-ylmethyl)-N′-(5-pyridin-3-yl-1H-pyrazole-3-carbonyl)-hydrazino]-2-hydroxy-propionic acid] | 1.26 to 10
8 | O=C(NN(Cc1ccc(-c2cccc(Cl)c2)cc1)C[C@@H](O)C(=O)O)c1cc(C2CC2)[nH]n1 [Example 4-10, (R)-3-[N-(3′-Chlorobiphenyl-4-ylmethyl)-N′-(5-cyclopropyl-1H-pyrazole-3-carbonyl)-hydrazino]-2-hydroxy-propionic acid] | 1.26 to 10

The next lines start with the values.

Row | Ki [nM] | SMILES
9 | ≤ 1 | O=C(NN(Cc1ccc(-c2cccc(Cl)c2)cc1)C[C@@H](O)C(=O)O)c1cc(C(=O)N2CCCC2)n[nH]1 [Example 4-11, (R)-3-{N-(3′-Chlorobiphenyl-4-ylmethyl)-N′-[5-(pyrrolidine-1-carbonyl)-2H-pyrazole-3-carbonyl]-hydrazino}-2-hydroxy-propionic acid]
10 | ≤ 1 | O=C(NN(Cc1ccc(-c2cccc(Cl)c2)cc1)C[C@@H](O)C(=O)O)c1cc(C(=O)N2CCC2)n[nH]1 [Example 4-12, (R)-3-[N′-[5-(Azetidine-1-carbonyl)-2H-pyrazole-3-carbonyl]-N-(3′-chlorobiphenyl-4-ylmethyl)-hydrazino]-2-hydroxy-propionic acid]
11 | ≤ 1 | CN(C)C(=O)c1cc(C(=O)NN(Cc2ccc(-c3cccc(Cl)c3)cc2)C[C@@H](O)C(=O)O)[nH]n1 [Example 4-13, (R)-3-[N-(3′-Chlorobiphenyl-4-ylmethyl)-N′-(5-dimethylcarbamoyl-2H-pyrazole-3-carbonyl)-hydrazino]-2-hydroxy-propionic acid]
12 | ≤ 1 | O=C(NN(Cc1ccc(-c2cccc(Cl)c2)cc1)C[C@@H](O)C(=O)O)c1cc(C(=O)N2CC[C@@H](O)C2)n[nH]1 [Example 4-14, (R)-3-{N-(3′-Chlorobiphenyl-4-ylmethyl)-N′-[5-((R)-3-hydroxy-pyrrolidine-1-carbonyl)-2H-pyrazole-3-carbonyl]-hydrazino}-2-hydroxy-propionic acid]
